Measurements reported in patent US20190225650A1, “PEPTIDOMIMETIC MACROCYCLES AND USE THEREOF IN REGULATING HIF1ALPHA” (AILERON THERAPEUTICS, INC., priority 2013, published 2019).
Bridge positions count the residues as written; N and C are the ends. Square brackets hold non-standard residues; d marks the D form. Peptide text beside a SMILES is read from it. S5 = C=CCCC[C@](C)(N)C(=O)O; Nle = CCCC[C@H](N)C(=O)O

Target: T1, flag-tagged HIF1α (AA 786-826) / His6-tagged p300 (AA 323-423) complex (Homo sapiens, UniProt Q09472)
T1 construct: His6-tagged p300 (AA 323-423); made in house; host or cells: E. coli (pETDuet vector)
Assay: HIF1α p300 displacement assay (TR FRET, +CHAPS)
Type: binding
Settings: read-out: IC50 (nM) (HIF1α_p300 Displacement + CHAPS)
Experimental: The ability of peptides to displace HIF1α c-terminal trans-activation domain from p300-CH was measured by a TR FRET assay. A complex of flag-tagged HIF1α (AA 786-826) and His6-tagged p300 (AA 323-423) was co-expressed using pETDuet vector (EMDMillipore, Bellrica Mass.) and purified from E. coli in the presence of 0.1 mM ZnSO4. The complex was diluted to 300 nM final in complete assay media and competitor peptides were added. The complete assay media contained 150 mM NaCl (Sigma +S5150 or equivalent), 20 mM HEPES pH 7.4 (Boston Bioproducts, Ashland, Mass.; #BB-2076), 7.5 mM CHAPS (Thermo #28300 or equivalent), and 1 mM DTT. Protein and peptide were incubated at room temperature for 1 hour before the addition of anti-Flag-K and anti-6×HIS-D2 (CisBio, Bedford Mass.) HTRF reconstitution buffer (50 mM Phosphate pH 7, 0.8 Potassium Flouride, BSA 0.2%)^1 to a final concentration of 0.5 μM and 4 nM respectively. […] The reaction was read on a TECAN F500 plate reader with settings recommended by CisBio. The ratio of donor to acceptor fluorescence was calculated. The resulting data was analyzed with Graphpad Prism 5.0. IC50 values were calculated for both proteins using the One Site Fit-LogIC50 equation and presented in the column “IC50 (nM) (HIF1α_p300 Displacement+CHAPS)” of Table 6. ^1 Cisbio USA, Bedford, Mass.; 61HISDLB (lot 007A), 61FG2KLB (024A), HTRF Buffer (62RB3RDF)

CCCC[C@H](NC(=O)[C@H](C)NC(=O)[C@@H](NC(=O)[C@@H](NC(=O)[C@H](CC(C)C)NC(=O)[C@]1(C)CCCC=CCCC[C@](C)(NC(=O)[C@H](CCC(=O)O)NC(=O)[C@H](CC(=O)O)NC(=O)[C@@H](NC(=O)[C@H](Cc2ccccc2)NC(C)=O)[C@@H](C)CC)C(=O)N[C@@H](C(C)C)C(=O)N[C@@H](CC(C)C)C(=O)N[C@@H](CCCC)C(=O)N1)C(C)C)[C@@H](C)CC)C(=O)N[C@@H](C)C(=O)N[C@@H](CC(C)C)C(=O)N[C@@H](CO)C(=O)N[C@@H](CO)C(=O)N[C@H](C(N)=O)[C@@H](C)CC [SP-129] (Ac-FIDE[S5]VL[Nle][S5]LVIA[Nle]ALSSI-NH2; staple 5-9)
IC50: > 700 nM
